According to ChEMBL document CHEMBL1133608 (J Med Chem, 2000):

Tests used:
D(2) dopamine receptor [1] = target: T1, D(2) dopamine receptor (Rattus norvegicus, UniProt P61169, S194A); test: biochemical; format: cell-based, C6 glioma
D(2) dopamine receptor [2] = target: D(2) dopamine receptor (Rattus norvegicus, UniProt P61169); test: biochemical; format: cell-based, C6 glioma
D(2) dopamine receptor [3] = target: T1, D(2) dopamine receptor; test: biochemical; format: cell-based, C6 glioma; remark: listed apart in the source
D(2) dopamine receptor [4] = target: T2, D(2) dopamine receptor (Rattus norvegicus, UniProt P61169, S197A); test: biochemical; format: cell-based, C6 glioma
D(2) dopamine receptor [5] = target: D(2) dopamine receptor (Rattus norvegicus, UniProt P61169, S193A); test: In vitro affinity at mutant D2 receptor (S193A) in C6 (glioma) cell membranes.; format: cell-based
D(2) dopamine receptor [6] = target: T1, D(2) dopamine receptor; test: In vitro affinity at mutant D2 receptor (S194A) in C6 (glioma) cell membranes.; format: cell-based
D(2) dopamine receptor [7] = target: T2, D(2) dopamine receptor; test: In vitro affinity at mutant D2 receptor (S197A) in C6 (glioma) cell membranes.; format: cell-based

Chain of D(2) dopamine receptor (Rattus norvegicus, UniProt P61169) (P61169 whole entry): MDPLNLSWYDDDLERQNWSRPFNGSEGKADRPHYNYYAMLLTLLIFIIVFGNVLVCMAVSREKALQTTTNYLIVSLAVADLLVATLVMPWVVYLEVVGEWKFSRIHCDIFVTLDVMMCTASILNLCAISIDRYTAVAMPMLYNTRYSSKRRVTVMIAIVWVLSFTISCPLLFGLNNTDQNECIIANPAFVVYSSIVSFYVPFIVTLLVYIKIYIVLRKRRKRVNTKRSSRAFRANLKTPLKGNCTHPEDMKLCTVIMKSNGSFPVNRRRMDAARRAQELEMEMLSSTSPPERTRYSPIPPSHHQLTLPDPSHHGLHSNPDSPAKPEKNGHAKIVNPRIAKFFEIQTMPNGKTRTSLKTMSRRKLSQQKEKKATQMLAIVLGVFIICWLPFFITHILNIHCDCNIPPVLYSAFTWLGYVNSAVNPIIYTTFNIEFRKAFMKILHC
T2 sequence (P61169 whole entry S197A): as the sequence (P61169 whole entry) above, with S197A counted along it
T1 sequence (P61169 whole entry S194A): as the sequence (P61169 whole entry) above, with S194A counted along it
Chain of D(2) dopamine receptor (Rattus norvegicus, UniProt P61169, S193A) (P61169 whole entry S193A): as the sequence (P61169 whole entry) above, with S193A counted along it

For `CCN(CC)C(=O)N[C@H]1C=C2c3cccc4[nH]cc(c34)C[C@H]2N(C)C1` [LISURIDE], the Kd (D(2) dopamine receptor [1]) was 2.3 nM, the Kd (D(2) dopamine receptor [2]) was 0.6 nM and the Kd (D(2) dopamine receptor [3]) was 0.3 nM. For the same compound, the Kd (D(2) dopamine receptor [4]) was 0.4 nM.
Work on `COc1cc(CCN)ccc1O` yielded a Kd (D(2) dopamine receptor [1]) of 88000 nM, a Kd (D(2) dopamine receptor [2]) of 94000 nM and a Kd (D(2) dopamine receptor [3]) of 251000 nM. For the same compound, the Kd (D(2) dopamine receptor [4]) was 225000 nM.
`N[C@@H]1CCc2cc(O)c(O)cc2C1` showed a Kd (D(2) dopamine receptor [1]) of 450 nM, a Kd (D(2) dopamine receptor [2]) of 210 nM and a Kd (D(2) dopamine receptor [3]) of 17000 nM. It also gave a Kd (D(2) dopamine receptor [4]) of 120 nM.
`CC(C)C[C@H]1C(=O)N2CCC[C@H]2[C@]2(O)O[C@](NC(=O)[C@@H]3C=C4c5cccc6[nH]c(Br)c(c56)C[C@H]4N(C)C3)(C(C)C)C(=O)N12` [BROMOCRIPTINE] showed a Kd (D(2) dopamine receptor [1]) of 17 nM, a Kd (D(2) dopamine receptor [2]) of 8 nM and a Kd (D(2) dopamine receptor [3]) of 8 nM. For the same compound, the Kd (D(2) dopamine receptor [4]) was 4 nM.
For `CCCN1Cc2c(C)cccc2[C@@H]2c3cc(O)c(O)cc3CC[C@H]21`, the Kd (D(2) dopamine receptor [2]) was 300 nM, the Kd (D(2) dopamine receptor [2]; c6 glioma) was 300 nM and the Kd (D(2) dopamine receptor [3]) was 1300 nM. It also gave a Kd (D(2) dopamine receptor [5]) of 1300 nM, a Kd (D(2) dopamine receptor [6]) of 400 nM and a Kd (D(2) dopamine receptor [7]) of 700 nM.
For `CN1C[C@H](C(N)=O)C=C2c3cccc4[nH]cc(c34)C[C@H]21`, the Kd (D(2) dopamine receptor [2]) was 0.62 nM, the Kd (D(2) dopamine receptor [2]; c6 glioma) was 0.62 nM and the Kd (D(2) dopamine receptor [3]) was 1.8 nM. For the same compound, the Kd (D(2) dopamine receptor [5]) was 2.8 nM, the Kd (D(2) dopamine receptor [6]) was 2.8 nM and the Kd (D(2) dopamine receptor [7]) was 1 nM.
